Measurements published in patent US8921124B2, “Pyrazole-based cyanine dye” (Wako Pure Chemical Industries, Ltd., priority 2006, dated 2014).

Columns and labels:
[1] = Fluorescence characteristics (max. absorption, excitation and fluorescence wavelengths, molar absorption coefficient); format: physicochemical
Experimental: Fluorescence characteristics are shown below.
(§1) Into 1 mL of purified water, Cy5 for labeling 1 mg of protein (manufactured by GE Healthcare Bioscience Biohealth Co., Ltd.), was dissolved. This solution was diluted 200 times with a 50 mM phosphoric acid buffer solution (pH 7.5) to measure OD value (0.1020).
(§2) Concentration of a Cy5 solution was determined from this OD value and molar absorption coefficient (ε=250,000), [described in a general product catalogue 2006 “7-4” of GE Healthcare Bioscience Co., Ltd.]), (0.408 μM). Then fluorescence was measured using the present solution.

[2] = Relative fluorescence intensity, roughly calculated relative to Cy5 per 1 μM as 100; format: physicochemical
Experimental: Relative fluorescence intensity of a compound of the present invention was roughly calculated relative to fluorescence intensity of Cy5, which is a conventional cyanine dye.
First, fluorescence intensity of Cy5 per 1 μM was measured from fluorescence intensity of Cy5, and relative fluorescence intensity of the compound of the present invention was roughly calculated relative to this fluorescence intensity value as 100.
as §1, §2
Relative fluorescence intensities of the compounds (13), (21), (32) and (38) of the present invention were roughly estimated relative to fluorescence intensity of Cy5 per 1 μM, obtained in Example 8, (1), as 100.
Relative fluorescence intensity of a compound of the present invention was roughly calculated based on fluorescence intensity of Cy5, which is a conventional cyanine dye derivative.
First, fluorescence intensity of Cy5 per 1 μM was measured from fluorescence intensity of Cy5, and relative fluorescence intensity of the compound of the present invention was roughly calculated based on this fluorescence intensity value as 100.
Into 1 mL of purified water, Cy5 (manufactured by GE Healthcare Bioscience Biohealth Co., Ltd.) for labeling 1 mg of protein, was dissolved. This solution was diluted 200 times with a 50 mM phosphoric acid buffer solution (pH 7.5) to measure OD value (0.1020).
Concentration of a Cy5 solution was determined from this OD value and molar absorption coefficient (E=250,000, [described in a general product catalogue 2006 “7-4” of GE Healthcare Bioscience Co., Ltd.]), (0.408 μM).
Then fluorescence of Cy5 was measured using the present solution.
Relative fluorescence intensity of the compound (40) of the present invention, obtained in Example 11 and the compound (43) of the present invention, obtained in Example 12 were roughly calculated, relative to fluorescence intensity per 1 μM of Cy5, obtained in Example 14, (1), as 100.

[3] = described in general product catalogue 2006 of GE Healthcare Bioscience; in M-1cm-1; cited from earlier work
[4] = 0.408 μM solution in 50 mM phosphoric acid buffer solution (pH 7.5)
[5] = Cy5 solution 0.408 μM in 50 mM phosphoric acid buffer solution (pH 7.5)

Compound: CCN1/C(=C/C=C/C=C/C2=[N+](CCCCCC(=O)O)c3ccc(S(=O)(=O)O)cc3C2(C)C)C(C)(C)c2cc(S(=O)(=O)[O-])ccc21 [Cy5]
- Max. excitation wavelength [Ex(max)] [1, 4]: 649 nm
- Max. fluorescence wavelength [Em(max)] [1, 4]: 670 nm
- Max. excitation wavelength [Ex(max)] [1, 5]: 649 nm
- Max. fluorescence wavelength [Em(max)] [1, 5]: 670 nm
- Fluorescence intensity [2, 5]: 3,161
- Fluorescence intensity of Cy5/1 μM ([2]; per 1 μM, from intensity at 0.408 μM): 7,747
- Fluorescence intensity of Cy5/1 μM ([2]; per 1 μM, from the intensity of the 0.408 μM solution): 7,747
- Relative fluorescence intensity [relative to fluorescence intensity of Cy5 (1 μM) as 100] ([2]; roughly calculated, Cy5 per 1 μM = 100): 100
- Relative fluorescence intensity [relative to fluorescence intensity of Cy5 (1 μM) as 100] ([2]; roughly calculated; Cy5 per 1 μM = 100): 100
- molar absorption coefficient (ε) [3]: 250,000
